System: hPSCs
Experiment: RT-qPCR of pluripotency and germ-layer markers during differentiation with CPP-peptides (Supplementary Fig. 7b-e)
Format: cell-based, human
Details: for CXCR4 (RT-qPCR) / FOXA1 (RT-qPCR) / GATA4 (RT-qPCR) / SOX17 (RT-qPCR): Fig. s7e; for BMP2 mRNA level (RT-qPCR) / BMP4 mRNA level (RT-qPCR) / CDH2 mRNA level (RT-qPCR) / CXCR4 mRNA level (RT-qPCR) / SNAI1 mRNA level (RT-qPCR) / TBXT mRNA level (RT-qPCR): Fig. s7d
Description: For CPP-conjugated peptide delivery, HeLa, 293T, and PA-1 cells were incubated with CPP-conjugated peptides or CPP-FITC at 2 μM in DMEM with 10% FBS for 12 h a day before cell harvest. hPSCs were treated with CPP-conjugated peptides at 10 μM in mTeSR Plus Medium, and the peptide-containing medium was changed every day over 10 days. The ROCK inhibitor (Tocris Bioscience, Y-27632) treated-hPSCs were dissociated into single cells using Accutase (Merck, SCR005) and differentiated into ectoderm, mesoderm, and endoderm using the STEMdiff Trilineage Differentiation Kit ([…] Technologies, 05230) following the manufacturer’s protocol. Differentiated cells treated with CPP-conjugated peptides were analysed at 0, 3, and 5 days for ectoderm and endoderm, and at 0, 3, and 4 days for mesoderm. […]
cDNA was synthesised using RevertAid Reverse Transcriptase (Thermo Fisher Scientific, EP0441) with synthesised random hexamer (Macrogen) for total RNA or stem-loop primers for miRNA. For RT-qPCR reactions, the SensiFAST SYBR No-ROX kit (Meridian Bioscience) was used according to the manufacturer’s protocol. All data analysis and visualisation were conducted using R 3.6.1 [www.r-project.org] or GraphPad Prism 10. RT primers for miRNA and RT-qPCR primer sequences are provided in Supplementary Data 6. […]
FPKM of each gene was presented f r om RNA-seq analysis. b–e hPSCs wer e treated with the indicated peptide during each germ la ye r differentiation. […]
An unpaired Student’s t-test was used for a–e. Data are presented as mean values ± SEM. All statistical test us ed wer e two-s ided. T he m inim um number of independent biological replicate experim ents was a–f n = 3. T he experiments wer e conducted three tim es, each iteration producing consistent results.

For “N-MPELQKLQQLKDE-C [P2, peptide derived from the UPF1 (419–700) domain]”, the “CXCR4 (RT-qPCR)” value (Day 0, replicate 1) was 1.088, the “CXCR4 (RT-qPCR)” value (Day 0, replicate 2) was 0.7848 and the “CXCR4 (RT-qPCR)” value (Day 0, replicate 3) was 1.127. The “CXCR4 (RT-qPCR)” value (Day 3, replicate 1) was 897.043, the “CXCR4 (RT-qPCR)” value (Day 3, replicate 2) was 593.555 and the “CXCR4 (RT-qPCR)” value (Day 3, replicate 3) was 261.141. The “CXCR4 (RT-qPCR)” value (Day 5, replicate 1) was 674.407, the “CXCR4 (RT-qPCR)” value (Day 5, replicate 2) was 690.257 and the “CXCR4 (RT-qPCR)” value (Day 5, replicate 3) was 509.637. For the same substance, the “FOXA1 (RT-qPCR)” value (Day 0, replicate 1) was 1.247, the “FOXA1 (RT-qPCR)” value (Day 0, replicate 2) was 1.413 and the “FOXA1 (RT-qPCR)” value (Day 0, replicate 3) was 0.3396. For the same substance, the “FOXA1 (RT-qPCR)” value (Day 3, replicate 1) was 120.605, the “FOXA1 (RT-qPCR)” value (Day 3, replicate 2) was 127.453 and the “FOXA1 (RT-qPCR)” value (Day 3, replicate 3) was 128.785. The “FOXA1 (RT-qPCR)” value (Day 5, replicate 1) was 296.789, the “FOXA1 (RT-qPCR)” value (Day 5, replicate 2) was 436.764 and the “FOXA1 (RT-qPCR)” value (Day 5, replicate 3) was 611.507. The “BMP2 mRNA level (RT-qPCR)” value (Day 0, replicate 1) was 0.8054, the “BMP4 mRNA level (RT-qPCR)” value (Day 0, replicate 1) was 1.545 and the “CDH2 mRNA level (RT-qPCR)” value (Day 0, replicate 1) was 1.016. For the same substance, the “CXCR4 mRNA level (RT-qPCR)” value (Day 0, replicate 1) was 0.9995, the “SNAI1 mRNA level (RT-qPCR)” value (Day 0, replicate 1) was 1.4406 and the “TBXT mRNA level (RT-qPCR)” value (Day 0, replicate 1) was 1.3. For the same substance, the “BMP2 mRNA level (RT-qPCR)” value (Day 0, replicate 2) was 1.199, the “BMP4 mRNA level (RT-qPCR)” value (Day 0, replicate 2) was 0.6508 and the “CDH2 mRNA level (RT-qPCR)” value (Day 0, replicate 2) was 0.7569. For the same substance, the “CXCR4 mRNA level (RT-qPCR)” value (Day 0, replicate 2) was 1.121, the “SNAI1 mRNA level (RT-qPCR)” value (Day 0, replicate 2) was 0.9418 and the “TBXT mRNA level (RT-qPCR)” value (Day 0, replicate 2) was 0.8652. For the same substance, the “BMP2 mRNA level (RT-qPCR)” value (Day 0, replicate 3) was 0.9954, the “BMP4 mRNA level (RT-qPCR)” value (Day 0, replicate 3) was 0.8046 and the “CDH2 mRNA level (RT-qPCR)” value (Day 0, replicate 3) was 1.227. The “CXCR4 mRNA level (RT-qPCR)” value (Day 0, replicate 3) was 0.8798, the “SNAI1 mRNA level (RT-qPCR)” value (Day 0, replicate 3) was 0.6176 and the “TBXT mRNA level (RT-qPCR)” value (Day 0, replicate 3) was 0.8351. The “BMP2 mRNA level (RT-qPCR)” value (Day 3, replicate 1) was 1.083, the “BMP4 mRNA level (RT-qPCR)” value (Day 3, replicate 1) was 30.6184 and the “CDH2 mRNA level (RT-qPCR)” value (Day 3, replicate 1) was 23.3268. For the same substance, the “CXCR4 mRNA level (RT-qPCR)” value (Day 3, replicate 1) was 950.283, the “SNAI1 mRNA level (RT-qPCR)” value (Day 3, replicate 1) was 22.3091 and the “TBXT mRNA level (RT-qPCR)” value (Day 3, replicate 1) was 6339.58. For the same substance, the “BMP2 mRNA level (RT-qPCR)” value (Day 3, replicate 2) was 0.8465, the “BMP4 mRNA level (RT-qPCR)” value (Day 3, replicate 2) was 25.9141 and the “CDH2 mRNA level (RT-qPCR)” value (Day 3, replicate 2) was 19.1392. The “CXCR4 mRNA level (RT-qPCR)” value (Day 3, replicate 2) was 710.257, the “SNAI1 mRNA level (RT-qPCR)” value (Day 3, replicate 2) was 18.7714 and the “TBXT mRNA level (RT-qPCR)” value (Day 3, replicate 2) was 5442.29. The “BMP2 mRNA level (RT-qPCR)” value (Day 3, replicate 3) was 1.108, the “BMP4 mRNA level (RT-qPCR)” value (Day 3, replicate 3) was 28.7876 and the “CDH2 mRNA level (RT-qPCR)” value (Day 3, replicate 3) was 24.2422. For the same substance, the “CXCR4 mRNA level (RT-qPCR)” value (Day 3, replicate 3) was 582.163, the “SNAI1 mRNA level (RT-qPCR)” value (Day 3, replicate 3) was 15.4609 and the “TBXT mRNA level (RT-qPCR)” value (Day 3, replicate 3) was 8084.66. The “BMP2 mRNA level (RT-qPCR)” value (Day 4, replicate 1) was 0.2114, the “BMP4 mRNA level (RT-qPCR)” value (Day 4, replicate 1) was 7.214 and the “CDH2 mRNA level (RT-qPCR)” value (Day 4, replicate 1) was 11.5611. The “CXCR4 mRNA level (RT-qPCR)” value (Day 4, replicate 1) was 685.489, the “SNAI1 mRNA level (RT-qPCR)” value (Day 4, replicate 1) was 15.012 and the “TBXT mRNA level (RT-qPCR)” value (Day 4, replicate 1) was 2940.28. For the same substance, the “BMP2 mRNA level (RT-qPCR)” value (Day 4, replicate 2) was 0.2729, the “BMP4 mRNA level (RT-qPCR)” value (Day 4, replicate 2) was 9.74 and the “CDH2 mRNA level (RT-qPCR)” value (Day 4, replicate 2) was 14.1794. For the same substance, the “CXCR4 mRNA level (RT-qPCR)” value (Day 4, replicate 2) was 388.959, the “SNAI1 mRNA level (RT-qPCR)” value (Day 4, replicate 2) was 19.2435 and the “TBXT mRNA level (RT-qPCR)” value (Day 4, replicate 2) was 3606.85. For the same substance, the “BMP2 mRNA level (RT-qPCR)” value (Day 4, replicate 3) was 0.3615, the “BMP4 mRNA level (RT-qPCR)” value (Day 4, replicate 3) was 11.782 and the “CDH2 mRNA level (RT-qPCR)” value (Day 4, replicate 3) was 17.5421. The “CXCR4 mRNA level (RT-qPCR)” value (Day 4, replicate 3) was 349.009, the “SNAI1 mRNA level (RT-qPCR)” value (Day 4, replicate 3) was 14.5806 and the “TBXT mRNA level (RT-qPCR)” value (Day 4, replicate 3) was 4470.07. The “GATA4 (RT-qPCR)” value (Day 0, replicate 1) was 0.7242, the “GATA4 (RT-qPCR)” value (Day 0, replicate 2) was 1.3517 and the “GATA4 (RT-qPCR)” value (Day 0, replicate 3) was 0.9241. The “GATA4 (RT-qPCR)” value (Day 3, replicate 1) was 32.2036, the “GATA4 (RT-qPCR)” value (Day 3, replicate 2) was 43.7097 and the “GATA4 (RT-qPCR)” value (Day 3, replicate 3) was 38.0896. For the same substance, the “GATA4 (RT-qPCR)” value (Day 5, replicate 1) was 51.4498, the “GATA4 (RT-qPCR)” value (Day 5, replicate 2) was 54.8514 and the “GATA4 (RT-qPCR)” value (Day 5, replicate 3) was 109.794. The “SOX17 (RT-qPCR)” value (Day 0, replicate 1) was 1.264, the “SOX17 (RT-qPCR)” value (Day 0, replicate 2) was 0.8709 and the “SOX17 (RT-qPCR)” value (Day 0, replicate 3) was 0.8647. The “SOX17 (RT-qPCR)” value (Day 3, replicate 1) was 1792.04, the “SOX17 (RT-qPCR)” value (Day 3, replicate 2) was 907.999 and the “SOX17 (RT-qPCR)” value (Day 3, replicate 3) was 1484.43. The “SOX17 (RT-qPCR)” value (Day 5, replicate 1) was 1721.02, the “SOX17 (RT-qPCR)” value (Day 5, replicate 2) was 1190.77 and the “SOX17 (RT-qPCR)” value (Day 5, replicate 3) was 1778.6.
